Source: US6316020A, “Pharmaceutical formulations” (priority 2000, dated 2001)

Test: Solubility assessment as a function of HPβCD concentration
Assay type: physicochemical
Settings: water
Protocol: Solubility studies were performed by the addition of a known mass of 5(6)-methoxy-2-[[(4-methoxy-3,5-dimethyl-2-pyridinyl)-methyl]sulfinyl]-1H- benzimidazole and/or HP CD to a given volume of solvent system. Solubilities were determined by observation, as the maximum concentration at which 5(6)-methoxy-2-[[(4-methoxy-3,5-dimethyl-2-pyridinyl)-methyl]sulfinyl]-1H- benzimidazole completely dissolved. Additionally, concentrations of 5(6)-methoxy-2-[[(4-methoxy-3,5-dimethyl-2-pyridinyl)-methyl]sulfinyl]-1H- benzimidazole and HP C D at set molar ratios were solubilized in systems of high pH (adjusted as high as 12.2, with 1N NaOH), the pH was adjusted (using 2N HCl) in a stepwise downward manner until precipitation occurred.
The solubility of 5(6)-methoxy-2-[[(4-methoxy-3,5-dimethyl-2-pyridinyl)-methyl]sulfinyl]-1H- benzimidazole was assessed as a function of HPβCD concentration in water.
The procedure according to Example 86 was repeated except that water with a borate buffer (pH of 8) was employed.
The procedure according to Example 86 was repeated except that water with a phosphate buffer (pH of 11) was employed.

COc1ccc2[nH]c([S+]([O-])Cc3ncc(C)c(OC)c3C)nc2c1 (centres unmarked) [5(6)-methoxy-2-[[(4-methoxy-3,5-dimethyl-2-pyridinyl)-methyl]sulfinyl]-1H-benzimidazole]
Solubility as a function of HPβCD concentration: increase linearly as a function of HPβCD concentration
influence of pH on solubility: influenced by solution pH
